This note sets out measurements from patent publication US20120035247A1, “RNA Interference Mediated Inhibition of Signal Transducer and Activator of Transcription 6 (STAT6) Gene Expression Using Short Interfering Nucleic Acid (siNA)” (Merck Sharp & Dohme Corp., priority 2009, published 2012).

[invAb] = inverted abasic unit; m = 2'-O-methyl; r = 2'-OH (RNA); f = 2'-fluoro

Data set [1] deals with STAT6 mRNA. In words: STAT6 siNA screen and dose response in human A549 cells, STAT6 mRNA by quantitative RT-PCR (Taqman). The format is cell-based. The following applies: human A549 cells, 10 nM siNA, 24 hrs, normalized to GAPDH and non-targeting control, mean ± S.D., n = 3. Here is the method:
A549 (human; ATCC cat# CCL-185): Cells were cultured at 37° C. in the presence of 5% CO2 and grown in Ham's F12K medium with 2 mM L-glutamine adjusted to contain 1.5 g/L sodium bicarbonate and supplemented with fetal bovine serum at a final concentration of 10%, 100 μg/mL of streptomycin, and 100 U/mL penicillin.
(§1) Cells were plated in all wells of a tissue-culture treated, 96-well plate at a final count of 5000 cells/well in […], of the appropriate culture media. The cells were cultured for 24 hours after plating at 37° C. in the presence of 5% CO2.
(§2) After 24 hours, complexes containing siNA and RNAiMax were created as follows: A solution of RNAiMax diluted 33-fold in OPTI-MEM was prepared. In parallel, solutions of the siNAs for testing were prepared to a final concentration of 120 nM in OPTI-MEM. After incubation of RNAiMax/OPTI-MEM solution at room temperature for 5 min, an equal volume of the siNA solution and the RNAiMax solution were added together for each of the siNAs.
(§3) This solution was incubated at room temperature for 20 minutes. After incubation, 20 uL of the solution was added to each of the relevant wells. The final concentration of siNA in each well was 10 nM and the final volume of RNAiMax in each well was 0.3u1.
(§4) The time of incubation with the RNAiMax-siNA complexes was 24 hours and there was no change in media between transfection and harvesting, unless otherwise indicated.
(§5) RNA was extracted from a 96-well plate using the TaqMan® Gene Expression Cells-to-CT™ Kit (Cat#4399002) with a modified protocol. Briefly, a 60 uL (1 plate) or 110 uL (2 plates) of the Lysis Solution with DNase I was dispensed into each well of the Lysis Buffer Plate (twin.tec full skirt plate). The lysis buffer and stop plates were stored at 4° C. until the cells were washed.
(§6) The plate was spun at 1100 rpm for 5 minutes. The culture medium was aspirated and discarded from the wells of the culture plate. The lysis was performed automatically using a BioMek FX instrument and method. After the Biomek method was completed, the lysis plate was incubated for 2 min. at room temperature. The lysis plate can be stored for 2 hours at 4° C., or at −20° C. or −80° C. for two months.
(§7) Each well of the reverse transcription plate required 10 uL of 2× reverse transcriptase Buffer, luL of 20× reverse transcription enzyme and 2 uL of nuclease-free water. The reverse transcription master mix was prepared by mixing 2× reverse transcription buffer, 20× reverse transcription enzyme mix, and nuclease-free water. 13 uL of the reverse transcription master mix was dispensed into each well of the reverse transcription plate (semi-skirted). A separate reverse transcription plate was prepared for each cell plate. The plate was loaded onto a Biomek NX or Biomek FX Dual-96 and the Biomek method was run. The program is programmed to automatically added 7 uL of lysate from the cell lysis procedure described above into each well of the reverse transcription plate. The plate is sealed and spun on a centrifuge (1000 rpm for 30 seconds) to settle the contents to the bottom of the reverse transcription plate. The plate is placed in a thermocycler at 37° C. for 60 min, 95° C. for 5 min, and 4° C. until the plate is removed from the thermocycler. Upon removal, if not used immediately, the plate was frozen at −20° C.
(§8) A series of probes and primers were used to detect the various mRNA transcripts of the genes of 13-Actin (human cell line only), and of STATE and GAPDH in mouse and human cell lines. All Taqman probes and primers for the experiments here-in described were supplied as pre-validated sets by Applied Biosystems, Inc. (see Table 2).
The assays were performed on an ABI 7900 instrument, according to the manufacturer's instructions. A TaqMan Gene Expression Master Mix (provided in the Cells-to-CTT™, Applied Biosystems, Cat #4399002) was used. The PCR reactions were carried out at 50° C. for 2 min, 95° C. for 20 min followed by 40 cycles at 95° C. for 15 secs and 60° C. for 1 min. […]
In general terms: Real-time PCR tracks product formation cycle by cycle.

For data set [2], the system named is STAT6 mRNA. The experiment in a line: STAT6 siNA screen in mouse NIH 3T3 cells, STAT6 mRNA by quantitative RT-PCR (Taqman). The format is cell-based. The following applies: mouse NIH3T3 cells, 10 nM siNA, 24 hrs, normalized to GAPDH and non-targeting control, n = 2. The procedure:
NIH 3T3 (mouse; ATCC cat# CRL-1658): Cells were cultured at 37° C. in the presence of 5% CO2 and grown in Dulbecco's modified Eagle's medium (DMEM) with 4 mM L-glutamine adjusted to contain 1.5 g/L sodium bicarbonate and 4.5 g/L glucose and supplemented with fetal bovine serum at a final concentration of 10%, 100 μg/mL of streptomycin, and 100 U/mL penicillin.
as §1, §2, §3, §4, §5, §6, §7, §8
The assays were performed on an ABI 7900 instrument, according to the manufacturer's instructions. A TaqMan Gene Expression Master Mix (provided in the Cells-to-CTT™, Applied Biosystems, Cat #4399002) was used. […]

Turning to “30012-DC: STAT6 siNA duplex; sense SEQ ID NO: 88, antisense SEQ ID NO: 89; target CAUCGUGCAUGGUAACCAA, site 1521 (sense CAUCGUGCAUGGUAACCAATT; antisense UUGGUUACCAUGCACGAUGUU; sense: DNA at AGT, 2'-fluoro at CU, [invAb] at 5' end, 3' end, backbone not given here; antisense: sugars from the 5' end rrrmffmffmfmfmfmmfmmm, backbone not given here) [STAT6 siNA duplex; target CAUCGUGCAUGGUAACCAA, site 1521]”, the “% KD STAT6” value is −13.7 ± 15.8% in data set [1] and 18 ± 3.2% in data set [2].

In the case of “30013-DC: STAT6 siNA duplex; sense SEQ ID NO: 90, antisense SEQ ID NO: 91; target CAUGGUGCCACCUUAUGAU, site 2280 (sense CAUGGUGCCACCUUAUGAUTT; antisense AUCAUAAGGUGGCACCAUGUU; sense: DNA at AGT, 2'-fluoro at CU, [invAb] at 5' end, 3' end, backbone not given here; antisense: sugars from the 5' end rrrmfmmmmfmmfmffmfmmm, backbone not given here) [STAT6 siNA duplex; target CAUGGUGCCACCUUAUGAU, site 2280]”, the “% KD STAT6” value in data set [1] amounted to 19.6 ± 13.6%; in data set [2], 46.1 ± 2.2%.

For “30014-DC: STAT6 siNA duplex; sense SEQ ID NO: 92, antisense SEQ ID NO: 93; target GGCCUUUCAGCACCGCUGU, site 1755 (sense GGCCUUUCAGCACCGCUGUTT; antisense ACAGCGGUGCUGAAAGGCCUU; sense: DNA at AGT, 2'-fluoro at CU, [invAb] at 5' end, 3' end, backbone not given here; antisense: sugars from the 5' end rrrmfmmfmffmmmmmmffmm, backbone not given here) [STAT6 siNA duplex; target GGCCUUU…UGU, site 1755]”, the “% KD STAT6” value in data set [1] was −0.4 ± 17.4%; in data set [2] it was 30.6 ± 2.8%.

For the substance “30015-DC: STAT6 siNA duplex; sense SEQ ID NO: 94, antisense SEQ ID NO: 95; target CUCAGAUGUGACUAUGGUA, site 2544 (sense CUCAGAUGUGACUAUGGUATT; antisense UACCAUAGUCACAUCUGAGUU; sense: DNA at AGT, 2'-fluoro at CU, [invAb] at 5' end, 3' end, backbone not given here; antisense: sugars from the 5' end rrrfmfmmffmfmfffmmmmm, backbone not given here) [STAT6 siNA duplex; target CUCAGAUGUGACUAUGGUA, site 2544]”, the entries for the “% KD STAT6” value in data set [1] and in data set [2] were 65.5 ± 7.6% and 81.6 ± 3.7%, respectively.

Take “30016-DC: STAT6 siNA duplex; sense SEQ ID NO: 96, antisense SEQ ID NO: 97; target GCCAGAUAACCAUGCCCUU, site 2447 (sense GCCAGAUAACCAUGCCCUUTT; antisense AAGGGCAUGGUUAUCUGGCUU; sense: DNA at AGT, 2'-fluoro at CU, [invAb] at 5' end, 3' end, backbone not given here; antisense: sugars from the 5' end rrrmmfmfmmffmfffmmfmm, backbone not given here) [STAT6 siNA duplex; target GCCAGAUAACCAUGCCCUU, site 2447]”: the “% KD STAT6” value is recorded as −20 ± 8.9% in data set [1] and 61.8 ± 2.3% in data set [2].

Turning to “30017-DC: STAT6 siNA duplex; sense SEQ ID NO: 98, antisense SEQ ID NO: 99; target GAUGCUUUCUGUUACAACA, site 421 (sense GAUGCUUUCUGUUACAACATT; antisense UGUUGUAACAGAAAGCAUCUU; sense: DNA at AGT, 2'-fluoro at CU, [invAb] at 5' end, 3' end, backbone not given here; antisense: sugars from the 5' end rrrfmfmmfmmmmmmfmffmm, backbone not given here) [STAT6 siNA duplex; target GAUGCUUUCUGUUACAACA, site 421]”, the “% KD STAT6” value is given as −14.9 ± 9.1% in data set [1] and 85.1 ± 2% in data set [2].

With “30018-DC: STAT6 siNA duplex; sense SEQ ID NO: 100, antisense SEQ ID NO: 101; target CAGAAGAUCUUCAACGACA, site 1720 (sense CAGAAGAUCUUCAACGACATT; antisense UGUCGUUGAAGAUCUUCUGUU; sense: DNA at AGT, 2'-fluoro at CU, [invAb] at 5' end, 3' end, backbone not given here; antisense: sugars from the 5' end rrrfmffmmmmmffffffmmm, backbone not given here) [STAT6 siNA duplex; target CAGAAGAUCUUCAACGACA, site 1720]”, the “% KD STAT6” value in data set [1] was 66.8 ± 3.2%; in data set [2], 64.8 ± 0.7%.

For the substance “30019-DC: STAT6 siNA duplex; sense SEQ ID NO: 102, antisense SEQ ID NO: 103; target GAAACAGCAUCUUGCCGCA, site 506 (sense GAAACAGCAUCUUGCCGCATT; antisense UGCGGCAAGAUGCUGUUUCUU; sense: DNA at AGT, 2'-fluoro at CU, [invAb] at 5' end, 3' end, backbone not given here; antisense: sugars from the 5' end rrrmmfmmmmfmffmffffmm, backbone not given here) [STAT6 siNA duplex; target …UCUUGCCGCA, site 506]”, the “% KD STAT6” value in data set [1] is recorded as −9.5 ± 20.6%; in data set [2], 59.6 ± 7.3%.

With “30020-DC: STAT6 siNA duplex; sense SEQ ID NO: 104, antisense SEQ ID NO: 105; target CUAGCCUUCUCCUCAAUGA, site 1928 (sense CUAGCCUUCUCCUCAAUGATT; antisense UCAUUGAGGAGAAGGCUAGUU; sense: DNA at AGT, 2'-fluoro at CU, [invAb] at 5' end, 3' end, backbone not given here; antisense: sugars from the 5' end r3 f2 m10 f2 m4, backbone not given here) [STAT6 siNA duplex; target CUAGCCUUCUCCUCAAUGA, site 1928]”, the “% KD STAT6” value in data set [1] is recorded as 58.8 ± 13.6%; in data set [2] it was 64.2 ± 7.9%.
